In ChEMBL document CHEMBL1201862, “PubChem BioAssay data set” (2004):
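Where inhibition never reached the appropriate level, the endpoint shown equals the highest concentration tested. Otherwise, values were interpolated linearly from a five-concentration, 48-hour dose response in 96-well plates. At the GI50, growth is halved.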 Active and inactive are the calls of the source. Rule as the data show it: active = GI50 up to about 1.1 µM and inactive = higher.

Key:
Experiment in all cases: inhibition of tumour cell growth, NCI panel, 48 h
786-0 = tested on: 786-0
A498 = tested on: A498
A549 = tested on: A549
ACHN = tested on: ACHN
CAKI-1 = tested on: CAKI-1
CCRF-CEM = tested on: CCRF-CEM
COLO 205 = tested on: COLO 205
DLD-1 = tested on: DLD-1
DMS-114 = tested on: DMS-114
DMS-273 = tested on: DMS-273
EKVX = tested on: EKVX
HCC 2998 = tested on: HCC 2998
HCT-116 = tested on: HCT-116
HCT-15 = tested on: HCT-15
HL-60 = tested on: HL-60
HOP-18 = tested on: HOP-18
HOP-62 = tested on: HOP-62
HT-29 = tested on: HT-29
IGROV-1 = tested on: IGROV-1
K562 = tested on: K562
KM-20L2 = tested on: KM-20L2
KM12 = tested on: KM12
LXFL 529 = tested on: LXFL 529
M14 = tested on: M14
M19-MEL = tested on: M19-MEL
Malme-3M = tested on: Malme-3M
NCI-H226 = tested on: NCI-H226
NCI-H23 = tested on: NCI-H23
NCI-H460 = tested on: NCI-H460
NCI-H522 = tested on: NCI-H522
OVCAR-3 = tested on: OVCAR-3
OVCAR-4 = tested on: OVCAR-4
OVCAR-5 = tested on: OVCAR-5
OVCAR-8 = tested on: OVCAR-8
RPMI-8226 = tested on: RPMI-8226
RXF 393 = tested on: RXF 393
SF-268 = tested on: SF-268
SF-295 = tested on: SF-295
SF-539 = tested on: SF-539
SK-MEL-2 = tested on: SK-MEL-2
SK-MEL-5 = tested on: SK-MEL-5
SK-OV-3 = tested on: SK-OV-3
SN12C = tested on: SN12C
SNB-19 = tested on: SNB-19
SNB-75 = tested on: SNB-75
SNB-78 = tested on: SNB-78
SW-620 = tested on: SW-620
TK-10 = tested on: TK-10
U-251 = tested on: U-251
UACC-257 = tested on: UACC-257
UACC-62 = tested on: UACC-62
UO-31 = tested on: UO-31
XF498 = tested on: XF498
HOP-92 = tested on: HOP-92
MOLT-4 = tested on: MOLT-4
SK-MEL-28 = tested on: SK-MEL-28

SMILES: Cn1c(=O)nc2n(-c3cccc(Br)c3)c3ccccc3nc-2c1=O
- GI50 (786-0): 3.71 µM (inactive)
- GI50 (A498): 10.2 µM (inactive)
- GI50 (A549): 2.92 µM (inactive)
- GI50 (ACHN): 1.36 µM (inactive)
- GI50 (CAKI-1): 12.3 µM (inactive)
- GI50 (CCRF-CEM): 5.82 µM (inactive)
- GI50 (COLO 205): 1.68 µM (inactive)
- GI50 (DLD-1): 5.41 µM (inactive)
- GI50 (DMS-114): 2.04 µM (inactive)
- GI50 (DMS-273): 3.1 µM (inactive)
- GI50 (EKVX): 3.79 µM (inactive)
- GI50 (HCC 2998): 2.59 µM (inactive)
- GI50 (HCT-116): 4.35 µM (inactive)
- GI50 (HCT-15): 4.06 µM
- GI50 (HL-60): 2.54 µM (inactive)
- GI50 (HOP-18): 5.9 µM (inactive)
- GI50 (HOP-62): 14.8 µM (inactive)
- GI50 (HT-29): 2.82 µM (inactive)
- GI50 (IGROV-1): 7.76 µM (inactive)
- GI50 (K562): 5.16 µM (inactive)
- GI50 (KM-20L2): 2.43 µM (inactive)
- GI50 (KM12): 4.8 µM (inactive)
- GI50 (LXFL 529): 6.1 µM (inactive)
- GI50 (M14): 2.81 µM (inactive)
- GI50 (M19-MEL): 1.43 µM (inactive)
- GI50 (Malme-3M): 2.71 µM (inactive)
- GI50 (NCI-H226): 8.38 µM (inactive)
- GI50 (NCI-H23): 1.61 µM (inactive)
- GI50 (NCI-H460): 2.96 µM (inactive)
- GI50 (NCI-H522): 6.62 µM (inactive)
- GI50 (OVCAR-3): 2.38 µM (inactive)
- GI50 (OVCAR-4): 3.71 µM (inactive)
- GI50 (OVCAR-5): 13.3 µM (inactive)
- GI50 (OVCAR-8): 3.56 µM (inactive)
- GI50 (RPMI-8226): 4.57 µM (inactive)
- GI50 (RXF 393): 11.5 µM (inactive)
- GI50 (SF-268): 8.91 µM (inactive)
- GI50 (SF-295): 5.73 µM (inactive)
- GI50 (SF-539): 5.42 µM (inactive)
- GI50 (SK-MEL-2): 5.06 µM (inactive)
- GI50 (SK-MEL-5): 1.75 µM (inactive)
- GI50 (SK-OV-3): 21.3 µM (inactive)
- GI50 (SN12C): 4.78 µM (inactive)
- GI50 (SNB-19): 1.38 µM (inactive)
- GI50 (SNB-75): 9.82 µM (inactive)
- GI50 (SNB-78): 12.2 µM (inactive)
- GI50 (SW-620): 2.61 µM (inactive)
- GI50 (TK-10): 11.3 µM (inactive)
- GI50 (U-251): 5.01 µM (inactive)
- GI50 (UACC-257): 2.09 µM (inactive)
- GI50 (UACC-62): 1.63 µM (inactive)
- GI50 (UO-31): 12.9 µM (inactive)
- GI50 (XF498): 5.36 µM (inactive)

SMILES: O=C(Sc1sc(=S)sc1SC(=O)c1ccccc1)c1ccccc1
- GI50 (786-0): > 100 µM (inactive)
- GI50 (A498): 31.5 µM (inactive)
- GI50 (A549): 27.6 µM (inactive)
- GI50 (ACHN): > 100 µM (inactive)
- GI50 (CAKI-1): > 100 µM (inactive)
- GI50 (CCRF-CEM): > 100 µM (inactive)
- GI50 (COLO 205): > 100 µM (inactive)
- GI50 (DMS-114): > 100 µM (inactive)
- GI50 (DMS-273): 53 µM (inactive)
- GI50 (EKVX): 53.8 µM (inactive)
- GI50 (HCC 2998): 34.2 µM (inactive)
- GI50 (HCT-116): 71.1 µM (inactive)
- GI50 (HCT-15): > 100 µM
- GI50 (HL-60): > 100 µM (inactive)
- GI50 (HOP-18): > 100 µM (inactive)
- GI50 (HOP-62): 25.4 µM (inactive)
- GI50 (HOP-92): 50.6 µM (inactive)
- GI50 (HT-29): 36.6 µM (inactive)
- GI50 (IGROV-1): 43.2 µM (inactive)
- GI50 (K562): > 100 µM (inactive)
- GI50 (KM-20L2): 48.2 µM (inactive)
- GI50 (KM12): 37.4 µM (inactive)
- GI50 (LXFL 529): > 100 µM (inactive)
- GI50 (M14): 68.9 µM (inactive)
- GI50 (M19-MEL): 21.7 µM (inactive)
- GI50 (MOLT-4): > 100 µM (inactive)
- GI50 (Malme-3M): 78.3 µM (inactive)
- GI50 (NCI-H23): > 100 µM (inactive)
- GI50 (NCI-H460): > 10 µM (inactive)
- GI50 (NCI-H522): > 100 µM (inactive)
- GI50 (OVCAR-3): > 100 µM (inactive)
- GI50 (OVCAR-4): > 100 µM (inactive)
- GI50 (OVCAR-5): 33.1 µM (inactive)
- GI50 (OVCAR-8): 83.4 µM (inactive)
- GI50 (RPMI-8226): > 100 µM (inactive)
- GI50 (RXF 393): > 100 µM (inactive)
- GI50 (SF-268): 62.1 µM (inactive)
- GI50 (SF-295): 33.7 µM (inactive)
- GI50 (SF-539): 46.2 µM (inactive)
- GI50 (SK-MEL-28): > 100 µM (inactive)
- GI50 (SK-MEL-2): 41.4 µM (inactive)
- GI50 (SK-MEL-5): > 100 µM (inactive)
- GI50 (SK-OV-3): 22.9 µM (inactive)
- GI50 (SN12C): 93.5 µM (inactive)
- GI50 (SNB-19): 37.1 µM (inactive)
- GI50 (SNB-75): 30.3 µM (inactive)
- GI50 (SNB-78): > 100 µM (inactive)
- GI50 (SW-620): > 100 µM (inactive)
- GI50 (TK-10): > 100 µM (inactive)
- GI50 (U-251): 28.8 µM (inactive)
- GI50 (UACC-257): > 100 µM (inactive)
- GI50 (UACC-62): 21.9 µM (inactive)
- GI50 (XF498): 55.2 µM (inactive)
